In patent publication US20100062465A1, “Detection of Histone Deacetylase Inhibition” (priority 2006, published 2010):
Structures can show the parent of a compound that is named as a salt.

Tests used:
[1] = molecular target: T1, recombinant HDAC8 (Homo sapiens, UniProt Q9BY41); assay: 19F MRS study of BLT cleavage by recombinant HDAC8; assay type: biochemical; conditions: 0.6 mM BLT, 28U HDAC-8
T1 construct: purchased Biomol
T1 sequence (Q9BY41 1-377): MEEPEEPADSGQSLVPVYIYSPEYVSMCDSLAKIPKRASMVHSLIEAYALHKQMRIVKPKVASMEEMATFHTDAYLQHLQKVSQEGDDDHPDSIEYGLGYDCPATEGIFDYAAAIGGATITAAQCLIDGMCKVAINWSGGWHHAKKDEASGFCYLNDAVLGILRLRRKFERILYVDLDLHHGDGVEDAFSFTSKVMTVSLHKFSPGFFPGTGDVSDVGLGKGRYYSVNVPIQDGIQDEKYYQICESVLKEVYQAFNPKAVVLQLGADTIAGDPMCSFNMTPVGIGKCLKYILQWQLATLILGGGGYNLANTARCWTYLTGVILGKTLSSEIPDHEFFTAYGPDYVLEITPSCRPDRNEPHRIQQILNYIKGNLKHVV
Procedure: To confirm that MRS can be used to monitor cleavage of the HDAC substrate, 0.6 mM BLT (Advance Chem-Tech, KY USA) was incubated alone or with 28U recombinant HDAC-8 (Biomol PA) in a total volume of 500 μl HDAC assay buffer (Biomol PA. USA, composed of 25 mM Tris/Cl, 137 mM NaCl, 2.7 mM KCl, 1 mM MgCl2 and formulated to maintain HDAC activity). ^19F MRS was used to monitor the decrease in BLT and buildup of the cleavage product trifluoroacetate (TFA) by acquiring ^1H decoupled spectra at 10 min intervals on an Avance DPX 300 Bruker spectrometer (Bruker Biospin, Germany) using a 30 deg. flip angle, 3 s relaxation delay and 128 scans. A sealed insert containing C6F6 served as a quantification and chemical shift reference (−164.9 ppm relative to CFCl3).

[2] = Solubility in growth medium; assay type: physicochemical; conditions: dissolved in DMSO first
Procedure: Note that controls were treated with DMSO in order to clearly identify effects which are due to the compound being investigated rather than its vehicle (DMSO). FSAHA dose was based on previous findings (Butler L M, Agus D B, Scher H I, et al. Suberoylanilide hydroxamic acid, an inhibitor of histone deacetylase, suppresses the growth of prostate cancer cells in vitro and in vivo. Cancer Res 2000 September 15;60(18):5165-70).

[3] = system: PC3 cells; assay: GC-MS analysis of TFA in extracellular medium; assay type: cell-based, human
From the text: To assess build-up of TFA in medium, samples of extracellular medium were collected and analyzed using gas chromatography-mass spectroscopy (GC-MS). In order to be able to use standard capillary GC-MS, TFA had to be derivatized. This was done using a modification of the procedure of Scott et al. (Scott B F, Mactavish D, Spencer C, Strachan W M J, Muir D C G. Haloacetic acids in Canadian lake waters and precipitation. Environmental Science & Technology 2000;34:4266-72) as follows. One ml of sample, or TFA standard in medium, was treated with 20 mg NaCl, 60 μL HCl, and 30 μl each of 100 mM 1,3-dicyclohexylcarbohiimide (Sigma-Aldrich Chemical Co., MO. USA) and 2,4-difluoroaniline (Sigma-Aldrich Chemical Co., MO. USA) and adjusted to a final volume of 1.320 ml in ethyl acetate. Mixture was vortexed for 60 minutes at room temperature; an additional 50 mg of NaCl added and sample briefly vortexed. Following phase separation the organic layer was removed and stored. The aqueous phase was further extracted twice with 200 μl of ethyl acetate. All three ethyl acetate extracts were combined and treated with 50 μl 3M HCl and 50 μL saturated anhydrous sodium sulfate (Na2SO4), vortexed and another 20 mg of Na2SO4 added and mixed. The organic phase was then evaporated to dryness under a dry nitrogen gas stream. The residue was dissolved in 250 μL of toluene and transferred into sample vials for analysis. Three microliters of sample extract were analyzed using an Agilent 6890N GC coupled to 5973N MSD in splitless injection mode. TFA was resolved using a Supleco Omegawax 250 capillary column (30 m×0.25 mm). Column temperature was 100° C. for one minute, ramping to 230° C. at 25° C. per minute and then held at 230° C. for two minutes. Detection was performed in EI positive mode monitoring the m/z 225 ion.

[4] = In vivo toxicity of BLT after intraperitoneal injection; conditions: intraperitoneal 100 mg/kg once a week on three subsequent weeks
[5] = system: cdk4; assay: Western blot analysis of protein levels; assay type: cell-based, human; conditions: PC3 cells, 10 μM FSAHA in the presence of 1 mM BLT
Procedure: (§1) PC3 cells were lysed using cell lysis buffer (0.1% NP-40, 50 mM HEPES (pH 7.4), 250 mM NaCl, 1 mM dithiothreitol, 1 mM EDTA, 1 mM NaF, 10 mM β-glycerophosphate, 0.1 mM sodium orthovanadate, 1 μl/ml of protease inhibitor cocktail set III (Calbiochem, USA) and 1 mM phenylmethylsulfonyl fluoride). Lysates were centrifuged at 12,000 rpm for 10 min (4° C.), the protein supernatant collected and total protein concentrations determined using Biorad DC Protein assay reagents (Biorad, CA, USA). Proteins were separated by sodium do-decyl sulfate-polyacrylamide gel electrophoresis using 10% gels and transferred electrophoretically to 0.45 μm Nitrocellulose membranes. Membranes were blocked in blocking buffer containing 5% non-fat dry milk in Tris buffered saline (pH 7.6) and 0.1% Tween-20 and incubated overnight at 4° C. with primary antibodies as follows. c-Raf, 1:1000, (Cell Signaling Technology (CST), MA, USA), Cdk4, 1:2000 (CST, MA, USA), Hsp70, 1:2000 (Stressgen, Canada) and GAPDH, 1:5000 (Stressgen, Canada). This was followed by 1 hour incubation with horseradish peroxidase-conjugated secondary anti-rabbit (CST MA, USA) and anti-mouse (CST, MA, USA) antibodies at dilutions of 1:1000 and 1:2000 respectively. Membranes were […] with enhanced chemiluminescence reagents (LumiGLO & Peroxide, CST MA. USA) for 1 minute and exposed to hyperfilm (Amersham Biosciences, USA), which was developed on a Konica SRX-101 automatic developer (Konica, Tokyo, Japan).

[6] = system: Hsp70; assay: Western blot analysis of protein levels; assay type: cell-based, human; conditions: PC3 cells, 10 μM FSAHA in the presence of 1 mM BLT
Procedure: as §1

[7] = system: c-Raf-1; assay: Western blot analysis of protein levels; assay type: cell-based, human; conditions: PC3 cells, 10 μM FSAHA in the presence of 1 mM BLT
Procedure: as §1

SMILES: CC(C)(C)OC(=O)N[C@@H](CCCCNC(=O)C(F)(F)F)C(=O)O [BLT, Boc-Lys-TFA-OH]
- Cleavage by recombinant HDAC8 monitored by 19F MRS [1]: substrate of HDAC8
- Solubility in growth medium [2]: low solubility
- Level of TFA in cellular growth medium ([3]; PC3 control cells, 1 mM BLT alone): 5 ± 0.4 µg/mL
- Toxicity to the animal [4]: no detectable toxicity

SMILES: O=C(CCCCCCC(=O)Nc1ccc(F)cc1)NO [FSAHA, 4-Fluorosuberanilohydroxamic acid]
- cdk4 protein level (Western blot) [5]: depletion
- Induction of Hsp70 (Western blot) [6]: not observed
- c-Raf-1 protein level (Western blot) [7]: depletion
- Average lowering of TFA in medium compared to controls ([3]; 10 μM FSAHA-treated PC3 cells): 1.6 µg/mL
- Level of TFA in cellular growth medium ([3]; PC3 cells, 10 μM FSAHA in the presence of 1 mM BLT): 3.4 ± 0.7 µg/mL
- Lowering of TFA in medium calculated from the BLT increase ([3]; assuming all TFA from BLT cleavage is removed into the medium, 10 μM FSAHA): 1.3 µg/mL
